Results as given in patent publication US20230220047A1, “PEPTIDES FOR TREATMENT OF SEPSIS AND CANCER” (NORWEGIAN UNIVERSITY OF SCIENCE AND TECHNOLOGY (NTNU), priority 2020, published 2023).

How the values were obtained:
[1] = tested on: JJN-3 multiple myeloma cells; type: cell-based, human; details: JJN-3, 10 μM
From the text: Minor effects on the proliferation of the IH-1 and RPMI 8226 cell lines are seen. […] The number of viable cells was detected based on quantitation of ATP by luminescent signal in correlation to a standard curve prepared for each cell line. Results are based on 3-5 biological replicates for each condition, error bars show standard deviation of mean.
Multiple myeloma cells JJN-3 (DSMZ (Germany) no. ACC 541), ANBL-6 (Cellosaurus accession number CVCL_5425, obtained from Dr Diane Jelinek, Mayo Clinic, Rochester, Minn.), INA-6 (Cellosaurus accession number CVCL_5209, obtained from Dr M. Gramatzki, University of Erlangen-Nurnberg, Erlangen, Germany), RPMI-8226 (ATCC CCL-155), and IH-1 (Cellosaurus accession number CVCL_WZ44, established from the pleural effusion of a myeloma patient by Myeloma research group, IKOM, NTNU, Trondheim, Norway) were grown in RPMI-1640 (Sigma-Aldrich Norway, Oslo, Norway) supplemented with 100 nM penicillin/streptomycin and 10% FCS, and for ANBL-6, IH-1 and INA-6 cells 2 ng/ml recombinant IL-6 (Gibco, Thermo Fisher Scientific, Waltham, Mass., USA). Murine multiple myeloma Vk*MYC cells were obtained from M.D. Leif Bergsagel (Mayo Clinic, Richester, Minn., USA) and cultured in RPMI-1640 supplemented with 2% human serum (B^+, The blood bank, St Olav's Hospital, Trondheim, Norway), 100 nM penicillin/streptomycin, L-Glutamine (2 mM) and recombinant IL-6 (1 ng/ml). HEK293T (ATCC CRL-3216) were cultured in DMEM with 10% FCS. THP-1 TRAM knockout (KO) and TLR4 KO cell lines, and matching lentivirally transduced control cell lines, were differentiated in the same way as wild type (WT) THP-1. TRAM KO THP-1 cell line is described in Yurchenko et al. (supra).
To evaluate the potential impact of the P7 peptide on proliferation of tumour cells of lymphoid origin, we performed a CellTiter-Glo Luminescent Cell Viability Assay to address proliferation of several multiple myeloma (MM) cell lines. […]

caspase-3 = experiment: Western blot for cleaved caspase-3 in JJN-3 cells; type: cell-based, human; details: JJN-3, 10 μM, 24 or 48 h
Experimental: JJN-3 cells were cultured for 24 or 48 hours with a control peptide (penetratin) or P7-A4-Pen, both at 10 μM. Cells were then lysed and lysates analysed by Western blot for cleaved caspase-3. Presence of cleaved (i.e. activated) caspase-3 is an indicator of apoptotic pathway activation. Cleaved caspase 3 was detected at high levels in the cells treated with P7-A4-Pen for 24 or 48 hours, and only at much lower levels in the cells treated with the control peptide. β-tubulin was detected as a loading control.
To investigate the mechanism of cytotoxicity mediated by the anti-proliferative peptides of the invention, the effect of the peptide P7-A4-Pen on caspase-3 activation in JJN-3 multiple myeloma cells was investigated. Caspase-3 is a pro-apoptotic caspase which is activated by cleavage by upstream caspases 8, 9 and 10 in response to cell death stimuli. Activated, cleaved caspase-3 cleaves and activates caspases 6 and 7, which induce apoptosis. JJN-3 multiple myeloma cells were incubated with 10 μM P7-A4-Pen or Penetratin control for 24 or 48 hours, lysed and analysed by Western blot to investigate caspase-3 activation (by blotting cleaved caspase-3).

TLR4 = experiment: Primary human macrophages stimulated with LPS: cytokine mRNA and p38 MAPK phosphorylation; type: cell-based; details: primary human macrophages (data not shown)
Experimental: Primary human macrophages (PBMC derived, differentiated in media with 10% human serum and M-CSF 20 ng/ml, 7 days) were stimulated with K12 LPS (100 ng/ml), FSL-1 (100 ng/ml) or CL075 (3 μg/ml). […] (B) qPCR for mRNA expression of IFNβ, IL-6, TNF and IL-1β, average for three biological replicates, error bars ±SD.
The effect of P7-Pen on TLR2-mediated pro-inflammatory cytokine expression was investigated.

TLR7 = experiment: qPCR of R837-induced TLR7-mediated cytokine expression in human monocytes; type: cell-based; details: 15 μM, R837 1 μg/ml
Experimental: Cells were pre-treated with 15 μM peptides for 30 min, followed by the addition of LPS (100 ng/ml) (A), R837 (1 μg/ml) (B) or CL075 (1 μg/ml) for increasing lengths of time.
As previously shown, P7-Pen inhibits TLR8-mediated IFNβ expression in human monocytes, without significant effect on the expression of pro-inflammatory cytokines. Human cells express one more endosomal RNA sensor in addition to TLR8: TLR7, which uses similar signaling pathways to induce cytokine expression as the TLR8 receptor. To investigate the effect of P7-Pen on TLR7-mediated signaling, human monocytes were stimulated with imiquimod (R837), an imidazoquinoline amine analog to guanosine, which activates only TLR7, not TLR8 (Lee et al., PNAS 100(11): 6646-6651 (2003)). […] TNF and IL-1β expression were not induced in monocytes by the R837 TLR7 agonist even in control treated cells (FIG. 18C).

STAT1 = experiment: Western blot of STAT1 phosphorylation in LPS-stimulated THP-1 cells; type: cell-based, human; details: LPS
Experimental: Protein pellets were dissolved by heating protein pellets for 10 min at 95° C. in buffer containing 4 M urea, 1 SDS (Sigma) and NuPAGE® LDS Sample Buffer (4×) (Thermo Fisher Scientific). Otherwise, lysates were made using 1× RIPA lysis buffer (150 mM NaCl, 50 mM TrisHCl (pH 7.5), 1% Triton X100, 5 mM EDTA, protease inhibitors, phosphatase inhibitors). For Western blot analysis we used pre-cast protein gels NuPAGE™ Novex™ and iBlot Transfer Stacks iBlot Gel Transfer Device (Thermo Fisher Scientific). Proteins were transferred to the membrane by dry-blotting using iBlot® 2 NC Regular/Mini Stacks (Life Technologies) in the iBlot 2 Dry Blotting System (Life Technologies). After secondary antibody incubation, membranes were washed and incubated with HRP substrate solution (SuperSignal™ West Femto Maximum Sensitivity Substrate (Thermo Fisher Scientific)). Images were taken using Odyssey® Fc (LI-CORE). Quantification graphs were generated by the analysis of signal intensities for protein bands (protein of interest and endogenous loading control—β-tubulin from the same membrane) using Odyssey software (LI-CORE). Data were normalised to the expression levels of β-tubulin and presented as a relative fold change to the control sample.

Ac-ITVAASVTLTGRQIKIWFQNRRMKWKK-NH2 [Peptide P7-A4-Pen]
cell proliferation ([1]; 48 h): strongly inhibited cell proliferation | cell death ([1]; 48 h (LDH assay not shown)): induced cell death | caspase-3 cleavage (caspase-3): strongly stimulates

Ac-ITVYASVTLTGRQIKIWFQNRRMKWKK-NH2 [Peptide P7-Pen]
TLR4-mediated expression of TNF, IL-6 and IL-1β mRNA (TLR4): totally abrogated | TLR7-mediated IFNβ mRNA expression (TLR7): inhibits | TLR7-mediated IL-6 expression (TLR7): delayed activation

Ac-ITVYASVTLTGRRRRRRRRRRR-NH2 [Peptide P7-Arg11]
phosphorylation of STAT1 (STAT1; 10 μM): strongly inhibited | phosphorylation of STAT1 (STAT1; 20 μM): fully abrogated
